Measured values taken from patent publication US6953577B2, “Human methionine aminopeptidase type 3” (Pharmacia Corporation, priority 1999, dated 2005).
pIC50: −log10 of the molar value.

Legend:
[1] = target: T1, recombinant human MetAP-3 (Homo sapiens, UniProt Q6UB28); test: Methionine aminopeptidase activity assay (methionine release from tripeptide, coupled L-amino acid oxidase/Amplex Red); assay type: biochemical; settings: for Cleaved / Vmax: tripeptide as substrate of recombinant human MetAP-3
T1 construct: The coding region of hMetAP-3 was also cloned into the EcoRI/HindIII sites of the pET43a vector and expressed as a fusion protein; NusA (N, cleaved yes); 6xHis (N, cleaved yes); made in house; host or cells: E. coli Tuner (DE3)plysS, pET43a
Protocol: (§1) Hydrogen peroxide, produced by the L-amino acid oxidase reaction, was measured by monitoring the formation of resorufin from Amplex Red in a reaction catalyzed by of horseradish peroxidase. […] The reaction was performed in a 96-well plate format at ambient temperature using the following assay buffer: 20 mM HEPES-Na pH 7.5, 100 mM NaCl, 0.1 mM CoCl2 containing 100 μM Amplex Red, 0.15 U/ml L-amino acid oxidase, 0.5 U/ml horseradish peroxidase.
(§2) The ability of fumagillin to inhibit each of the recombinant human MetAPs was determined by adding 0.6 nM-500 μM fumagillin at the start of the reaction. The IC50 values were determined under conditions in which enzyme concentration and reaction time were linear.

[2] = system: endothelial cell proliferation; settings: cited from earlier work
[3] = target: T2, MetAP-2 (Homo sapiens, UniProt P50579); settings: cited from earlier work
Target sequence in this assay (P50579 whole entry, species assumed): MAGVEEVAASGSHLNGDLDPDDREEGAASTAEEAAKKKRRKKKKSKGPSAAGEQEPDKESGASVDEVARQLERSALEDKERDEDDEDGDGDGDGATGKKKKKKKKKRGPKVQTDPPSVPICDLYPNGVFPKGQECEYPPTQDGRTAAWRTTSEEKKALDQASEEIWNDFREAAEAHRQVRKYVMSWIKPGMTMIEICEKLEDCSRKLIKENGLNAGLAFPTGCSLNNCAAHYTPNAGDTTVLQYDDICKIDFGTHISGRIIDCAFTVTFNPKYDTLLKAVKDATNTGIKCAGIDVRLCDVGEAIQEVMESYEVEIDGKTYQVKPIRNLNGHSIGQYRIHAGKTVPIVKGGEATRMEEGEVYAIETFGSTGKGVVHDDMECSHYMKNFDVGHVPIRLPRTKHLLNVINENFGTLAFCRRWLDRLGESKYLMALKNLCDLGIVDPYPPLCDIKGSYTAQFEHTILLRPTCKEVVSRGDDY

[4] = target: type-1 enzyme (MetAP-1) (Homo sapiens, UniProt P53582); settings: cited from earlier work
[5] = in vivo, cited from earlier work
[6] = target: T2, MetAP-2; test: Methionine aminopeptidase activity assay (methionine release from tripeptide, coupled L-amino acid oxidase/Amplex Red)
Protocol: as §1, §2
Target sequence in this assay (P50579 whole entry): as the sequence (P50579 whole entry, species assumed) above

[7] = target: recombinant human MetAP-1 (Homo sapiens, UniProt P53582); test: as above
Protocol: as §1, §2

T1 sequence (Q6UB28 20-335): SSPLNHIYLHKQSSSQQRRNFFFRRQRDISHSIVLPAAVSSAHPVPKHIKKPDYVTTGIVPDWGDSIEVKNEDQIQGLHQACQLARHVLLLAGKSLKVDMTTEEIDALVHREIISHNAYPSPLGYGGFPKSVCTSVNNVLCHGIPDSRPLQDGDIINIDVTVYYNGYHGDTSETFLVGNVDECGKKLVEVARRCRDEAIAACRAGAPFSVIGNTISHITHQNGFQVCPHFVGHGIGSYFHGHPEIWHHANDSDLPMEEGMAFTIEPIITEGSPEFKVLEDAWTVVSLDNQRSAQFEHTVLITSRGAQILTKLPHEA

Compound: MGG: synthesized tripeptide evaluated as substrate for MetAP-3
- Activity with MGG relative to MAS as substrate [1]: twice as high
- Cleaved [1]: cleaved and Yes
- Vmax [1]: 134 Abs × 1000/min

Compound: CO[C@@H]1[C@H](OC(=O)NC(=O)CCl)CC[C@]2(CO2)[C@H]1[C@@]1(C)O[C@@H]1CC=C(C)C [TNP-470]
- Potency relative to fumagillin [2]: 50 fold
- Binding and inhibition of MetAP-2 (in words) [3]: irreversibly bind and potently inhibit
- Inhibition of type-1 enzyme (in words) [4]: but not the type-1 enzyme
- Oral availability (in words) ([5]; po): lack of oral availability
- Toxicity (in words) [5]: dose-limiting neurotoxicity

Compound: CO[C@@H]1[C@H](OC(=O)/C=C/C=C/C=C/C=C/C(=O)O)CC[C@]2(CO2)[C@H]1[C@@]1(C)O[C@@H]1CC=C(C)C [Fumagillin, fumagillin]
- pIC50 [6]: 8.30
- pIC50 [7]: 4.48
- Inhibition of MetAP-3 by fumagillin (in words) [1]: not inhibited by fumagillin
- pIC50 ([1]; read-out: Fumagillin IC50): < 3.30
- Inhibition of endothelial cell proliferation (in words) [2]: potent inhibitor of endothelial cell proliferation
- Binding and inhibition of MetAP-2 (in words) [3]: irreversibly bind and potently inhibit
- Inhibition of type-1 enzyme (in words) [4]: but not the type-1 enzyme

Compound: GGG: synthesized tripeptide evaluated as substrate for MetAP-3
- Cleaved [1]: No
- Vmax [1]: 0.7 Abs × 1000/min

Compound: MEG: synthesized tripeptide evaluated as substrate for MetAP-3
- Cleaved [1]: cannot cleave and No
- Vmax [1]: 1.1 Abs × 1000/min

Compound: CO[C@@H]1C(=O)CC[C@]2(CO2)[C@@]1(O)[C@@]1(C)O[C@@H]1CC=C(C)C [ovalicin]
- Inhibition of type-1 enzyme (in words) [4]: but not the type-1 enzyme
